The values that follow come from patent US12152024B2, “Pesticidally active heterocyclic derivatives with sulphur and hydroxylamine substituents” (SYNGENTA PARTICIPATIONS AG, priority 2016, dated 2024).

Usually mortality stands for the percentage killed. Read a low mortality as a weak lethal effect. For orientation: melting point means the temperature of the solid-liquid transition.

Some results are limits rather than exact numbers.

Data set [1] deals with Euschistus heros (Neotropical Brown Stink Bug). Nature of the data set: Activity against Euschistus heros (neotropical brown stink bug), soybean leaves sprayed. The data set is classed as in vivo. As to conditions: 120 h, application rate 200 ppm, N2 nymphs, 5 days after infestation, read-out: effect in at least one of the two categories (mortality or growth inhibition). How it is done: Soybean leaves on agar in 24-well microtiter plates were sprayed with aqueous test solutions prepared from 10′000 ppm DMSO stock solutions. After drying the leaves were infested with N2 nymphs. The samples were assessed for mortality and growth inhibition in comparison to untreated samples 5 days after infestation.

For data set [2], the system named is Plutella xylostella (Diamond Back Moth). Kind of data set: Activity against Plutella xylostella (diamond back moth), artificial diet. It is filed as in vivo. As to conditions: for percent effect (mortality or growth inhibition) at 200 ppm: 120 h, application rate 200 ppm, L2 larvae, 5 days after infestation, read-out: effect in at least one of the two categories (mortality or growth inhibition). Here is the method:
24-well microtiter plates with artificial diet were treated with aqueous test solutions prepared from 10′000 ppm DMSO stock solutions by pipetting. After drying, the plates were infested with L2 larvae (10 to 15 per well). The samples were assessed for mortality and growth inhibition in comparison to untreated samples 5 days after infestation.

For data set [3], the system named is Myzus persicae (Green Peach Aphid). Nature of the data set: Activity against Myzus persicae (green peach aphid): feeding/contact activity. It is filed as in vivo. Particulars: for mortality at 200 ppm: Myzus persicae, 144 h, application rate 200 ppm, feeding/contact, mixed ages, 6 days after infestation. Here is the method:
Sunflower leaf discs were placed onto agar in a 24-well microtiter plate and sprayed with aqueous test solutions prepared from 10′000 ppm DMSO stock solutions. After drying, the leaf discs were infested with an aphid population of mixed ages. The samples were assessed for mortality 6 days after infestation.

In data set [4] the test system is Spodoptera littoralis (Egyptian Cotton Leaf Worm). Nature of the data set: Activity against Spodoptera littoralis (Egyptian cotton leaf worm), uptake via lettuce roots from agar. The data set is classed as in vivo. Particulars: 144 h, test rate 12.5 ppm, 6 days after infestation, read-out: effect in at least one of the three categories (mortality, anti-feeding, or growth inhibition). The source says:
Test compounds were applied by pipette from 10′000 ppm DMSO stock solutions into 24-well plates and mixed with agar. Lettuce seeds were placed onto the agar and the multi well plate was closed by another plate which contained also agar. After 7 days the compound was absorbed by the roots and the lettuce grew into the lid plate. The lettuce leaves were then cut off into the lid plate. Spodoptera eggs were pipetted through a plastic stencil onto a humid gel blotting paper and the lid plate was closed with it. The samples were assessed for mortality, anti-feedant effect and growth inhibition in comparison to untreated samples 6 days after infestation.

For data set [5], the system named is Diabrotica balteata (corn root worm). Nature of the data set: Activity against Diabrotica balteata (corn root worm), maize sprouts sprayed. Particulars: for percent effect (mortality or growth inhibition) at 200 ppm: 96 h, application rate 200 ppm, L2 larvae, 4 days after infestation, read-out: effect in at least one of the two categories (mortality or growth inhibition). It is filed as in vivo. Here is the method: Maize sprouts placed onto an agar layer in 24-well microtiter plates were treated with aqueous test solutions prepared from 10′000 ppm DMSO stock solutions by spraying. After drying, the plates were infested with L2 larvae (6 to 10 per well). The samples were assessed for mortality and growth inhibition in comparison to untreated samples 4 days after infestation.

In data set [6] the test system is Myzus persicae (Green Peach Aphid). Kind of data set: Activity against Myzus persicae (green peach aphid): systemic activity. It is filed as in vivo. As to conditions: for mortality at 24 ppm: Myzus persicae, 144 h, test rate 24 ppm, systemic, pea seedling roots in test solution, 6 days. Here is the method: Roots of pea seedlings infested with an aphid population of mixed ages were placed directly into aqueous test solutions prepared from 10′000 DMSO stock solutions. The samples were assessed for mortality 6 days after placing seedlings into test solutions.

Data set [7] deals with Spodoptera littoralis (Egyptian Cotton Leaf Worm). Kind of data set: Activity against Spodoptera littoralis (Egyptian cotton leaf worm), cotton leaf discs sprayed. As to conditions: for percent control (mortality, anti-feedant effect or growth inhibition) at 200 ppm: foliar, 72 h, application rate 200 ppm, L1 larvae, 3 days after infestation, read-out: control (mortality, anti-feeding effect or growth inhibition). The data set is classed as in vivo. How it is done:
Cotton leaf discs were placed onto agar in 24-well microtiter plates and sprayed with aqueous test solutions prepared from 10′000 ppm DMSO stock solutions. After drying the leaf discs were infested with five L1 larvae. The samples were assessed for mortality, anti-feeding effect, and growth inhibition in comparison to untreated samples 3 days after infestation. Control of Spodoptera littoralis by a test sample is given when at least one of the categories mortality, anti-feedant effect, and growth inhibition is higher than the untreated sample.

Data set [8] has as its system Tetranychus urticae (Two-Spotted Spider Mite). Kind of data set: Activity against Tetranychus urticae (two-spotted spider mite). It is filed as in vivo. Particulars: 192 h, application rate 200 ppm, mixed population (mobile stages), 8 days after infestation. Here is the method: Bean leaf discs on agar in 24-well microtiter plates were sprayed with aqueous test solutions prepared from 10′000 ppm DMSO stock solutions. After drying the leaf discs were infested with a mite population of mixed ages. The samples were assessed for mortality on mixed population (mobile stages) 8 days after infestation.

Data set [9] concerns Bemisia tabaci (Cotton White Fly). Nature of the data set: Activity against Bemisia tabaci (cotton white fly). As to conditions: 144 h, application rate 200 ppm, adult white flies, 6 days after incubation. It is filed as in vivo. Here is the method:
Cotton leaf discs were placed on agar in 24-well microtiter plates and sprayed with aqueous test solutions prepared from 10′000 ppm DMSO stock solutions. After drying the leaf discs were infested with adult white flies. The samples were checked for mortality 6 days after incubation.

The test system of data set [10] is Franklinella occidentalis (Western Flower Thrips). Kind of data set: Activity against Franklinella occidentalis (western flower thrips). It is filed as in vivo. Particulars: Frankliniella occidentalis, 168 h; application rate 200 ppm; mixed ages; 7 days after infestation. Here is the method:
Sunflower leaf discs were placed on agar in 24-well microtiter plates and sprayed with aqueous test solutions prepared from […] stock solutions. After drying the leaf discs were infested with a Frankliniella population of mixed ages. The samples were assessed for mortality 7 days after infestation.

[11] abbreviates: concentration 12.5 ppm, listed as drawing 143.

With `CCS(=O)(=O)c1cccnc1-c1nc2cc(C(F)(F)F)n(OC)c(=O)c2n1C` [Compound A2, 2-(3-ethylsulfonyl-2-pyridyl)-5-methoxy-3-methyl-6-(trifluoromethyl) imidazo[4,5-c]pyridin-4-one], the percent effect (mortality or growth inhibition) at 200 ppm in [1], in [2] and in [5] was at least 80% each time. For the same compound, the “Mortality (%)” value in data set [2] (setting [11]) came to 80%; in data set [3] (Myzus persicae (feeding/contact), concentration 50 ppm, listed as drawing 143), 100%; in [5] (concentration 50 ppm, listed as drawing 143) it was 100%; in data set [6] (Myzus persicae (systemic), concentration 1.5 ppm, listed as drawing 143) it was 80%; in data set [7] (setting [11]), 80%. Also, in data set [3], the mortality at 200 ppm was at least 80%. Besides, the percent effect (mortality, anti-feeding or growth inhibition) at 12.5 ppm in [4] is at least 80%. This compound yielded a mortality at 24 ppm in [6] of at least 80%. Further, the percent control (mortality, anti-feedant effect or growth inhibition) at 200 ppm in [7] is at least 80%.
In the case of `CCS(=O)(=O)c1ccc(-n2cncn2)nc1-c1nc2cc(C(F)(F)F)n(OC)c(=O)c2n1C` [Compound A3, 2-[3-ethylsulfonyl-6-(1,2,4-triazol-1-yl)-2-pyridyl]-5-methoxy-3-methyl-6-(trifluoromethyl)imidazo[4,5-c]pyridin-4-one], the percent effect (mortality or growth inhibition) at 200 ppm in [1], in data set [2] and in data set [5] was at least 80% in each case. The mortality at 200 ppm in [8], in data set [3] and in [9] was at least 80% in each case. The mortality at 24 ppm in data set [6] is at least 80%. Moreover, the percent control (mortality, anti-feedant effect or growth inhibition) at 200 ppm in data set [7] is at least 80%.
As to `CCS(=O)(=O)c1cc(C2(C#N)CC2)cnc1-c1nc2cc(C(F)(F)F)n(OC)c(=O)c2n1C` [Compound A8, 1-[5-ethylsulfonyl-6-[5-methoxy-3-methyl-4-oxo-6-(trifluoromethyl)imidazo[4,5-c]pyridin-2-yl]-3-pyridyl]cyclopropanecarbonitrile], the percent effect (mortality or growth inhibition) at 200 ppm in data set [1], in [2] and in data set [5] was at least 80% each time. For the same compound, the mortality at 200 ppm in data set [8], in [3] and in [9] was at least 80% in each case. In data set [6], this compound came in with a mortality at 24 ppm of at least 80%. Also, the percent control (mortality, anti-feedant effect or growth inhibition) at 200 ppm in [7] was at least 80%.
As for `CCS(=O)(=O)c1cc(C2(C#N)CC2)ccc1-c1nc2cc(C(F)(F)F)n(OC)c(=O)c2n1C` [Compound A9, 1-[3-ethylsulfonyl-4-[5-methoxy-3-methyl-4-oxo-6-(trifluoromethyl)imidazo[4,5-c]pyridin-2-yl)phenyl]cyclopropanecarbonitrile], the percent effect (mortality or growth inhibition) at 200 ppm in data set [1], in [2] and in data set [5] was at least 80% each time. The mortality at 200 ppm in data set [8], in [3] and in [9] was at least 80% throughout. Moreover, the mortality at 24 ppm in data set [6] was at least 80%. Besides, in data set [7], the percent control (mortality, anti-feedant effect or growth inhibition) at 200 ppm was at least 80%.
`CCS(=O)(=O)c1ccc(Cl)nc1-c1nc2cc(C(F)(F)F)n(OC)c(=O)c2n1C` [Compound A11, 2-(6-chloro-3-ethylsulfonyl-2-pyridyl)-5-methoxy-3-methyl-6-(trifluoromethyl)imidazo[4,5-c]pyridin-4-one] displayed a melting point of 195 to 197 °C.
For the compound `CCS(=O)(=O)c1cc(C(C)(C)C#N)cnc1-c1nc2cc(C(F)(F)F)n(OC)c(=O)c2n1C` [Compound A12, 2-[5-ethylsulfonyl-6-[5-methoxy-3-methyl-4-oxo-6-(trifluoromethyl)imidazo[4,5-c]pyridin-2-yl]-3-pyridyl]-2-methyl-propanenitrile], the percent effect (mortality or growth inhibition) at 200 ppm in [1], in data set [2] and in data set [5] was at least 80% throughout. Besides, the mortality at 200 ppm in [10], in [3] and in data set [9] was at least 80% in each case. Moreover, the mortality at 24 ppm in data set [6] is at least 80%. Further, in data set [7], the percent control (mortality, anti-feedant effect or growth inhibition) at 200 ppm is at least 80%.
Consider `CCS(=O)(=O)c1ccc(N)nc1-c1nc2cc(C(F)(F)F)n(OC)c(=O)c2n1C` [Compound A13, 2-(6-amino-3-ethylsulfonyl-2-pyridyl)-5-methoxy-3-methyl-6-(trifluoromethyl)imidazo[4,5-c]pyridin-4-one], for which the percent effect (mortality or growth inhibition) at 200 ppm in data set [1], in [2] and in data set [5] was at least 80% in each case. Further, the mortality at 200 ppm in data set [3] and in [9] was at least 80% throughout. Also, in data set [6], the mortality at 24 ppm was at least 80%. Besides, in [7], the percent control (mortality, anti-feedant effect or growth inhibition) at 200 ppm was at least 80%.
`CCS(=O)(=O)c1cc(Cl)c(N)nc1-c1nc2cc(C(F)(F)F)n(OC)c(=O)c2n1C` [Compound A14, 2-(6-amino-5-chloro-3-ethylsulfonyl-2-pyridyl)-5-methoxy-3-methyl-6-(trifluoromethyl)imidazo[4,5-c]pyridin-4-one]: the percent effect (mortality or growth inhibition) at 200 ppm in data set [1], in [2] and in [5] was at least 80% throughout. The mortality at 200 ppm in data set [3] and in [9] was at least 80% each time. For the same compound, the mortality at 24 ppm in [6] was at least 80%. Besides, the percent control (mortality, anti-feedant effect or growth inhibition) at 200 ppm in [7] was at least 80%.
As to `CCS(=O)(=O)c1cc(Br)cnc1-c1nc2cc(C(F)(F)F)n(OC)c(=O)c2n1C` [Compound A17, 2-(5-bromo-3-ethylsulfonyl-2-pyridyl)-5-methoxy-3-methyl-6-(trifluoromethyl)imidazo[4,5-c]pyridin-4-one], the percent effect (mortality or growth inhibition) at 200 ppm in data set [1], in [2] and in [5] was at least 80% each time. Besides, the mortality at 200 ppm in data set [3] and in data set [9] was at least 80% throughout. The compound also showed a mortality at 24 ppm in data set [6] of at least 80%. In data set [7], the percent control (mortality, anti-feedant effect or growth inhibition) at 200 ppm was at least 80%.
